Assay [1] addresses cAMP-dependent protein kinase (PKA) (Homo sapiens, UniProt P22694+P17612+P22612). The experiment in a line: Inhibition of PKA. It is filed as protein assay.
The test system of another assay is MIA PaCa-2. The experiment in a line: Antiproliferative activity against MIA PaCa cells by MTT assay. The note with it: Homo sapiens. Type of assay: functional, cell-based.

Consider 13 molecules from ChEMBL document CHEMBL1142911, “Design and synthesis of pyridine-pyrazolopyridine-based inhibitors of protein kinase B/Akt” (Bioorg Med Chem, 2007).

In assay [1], `N[C@H](COc1cncc(-c2ccc3[nH]nc(Cl)c3c2)c1)Cc1c[nH]c2ccccc12` registered an IC50 of 6.8 nM. The molecule further registered an EC50 in the assay on MIA PaCa-2 of 380 nM.

`N[C@H](COc1cncc(-c2ccc3[nH]nc(C(F)(F)F)c3c2)c1)Cc1c[nH]c2ccccc12`: the 50% inhibitory concentration (IC50) in assay [1] worked out at 16 nM. The same molecule yielded an EC50 with MIA PaCa-2 of 1290 nM.

Consider `N[C@H](COc1cncc(-c2ccc3[nH]ncc3c2)c1)Cc1c[nH]c2ccccc12`, for which the concentration giving a half-maximal response (EC50) in the assay with MIA PaCa-2 worked out at 820 nM.

Molecule `N[C@H](COc1cncc(-c2cc3cn[nH]c3cc2[N+](=O)[O-])c1)Cc1c[nH]c2ccccc12` had an EC50 in the assay on MIA PaCa-2 of 2940 nM.

Consider `N[C@H](COc1cncc(-c2cc3cn[nH]c3cn2)c1)Cc1ccccc1`, for which, in the assay with MIA PaCa-2, the midpoint of the response, the EC50, lay at 1690 nM.

`N[C@H](COc1cncc(-c2cc3c(-c4ccccc4)n[nH]c3cn2)c1)Cc1ccccc1` gave a 50% inhibitory concentration (IC50) in assay [1] of 371 nM. The molecule further yielded a 50% effective concentration (EC50) in the assay on MIA PaCa-2 of 584 nM.

Turning to `N[C@H](COc1cncc(-c2cc3c(Cl)n[nH]c3cn2)c1)Cc1ccccc1`, the IC50 in assay [1] amounted to 46 nM.

For the molecule `Nc1cc2[nH]nc(Cl)c2cc1-c1cncc(OC[C@@H](N)Cc2c[nH]c3ccccc23)c1`, the IC50 in assay [1] came out at 58 nM. This molecule also yielded a concentration for a half-maximal effect (EC50) in the assay on MIA PaCa-2 of 330 nM.

Molecule `Cc1n[nH]c2cnc(-c3cncc(OC[C@@H](N)Cc4ccccc4)c3)cc12` came in with a 50% inhibitory concentration (IC50) in assay [1] of 32 nM. Further, in the assay with MIA PaCa-2, the EC50 came to 680 nM.

With `N[C@H](COc1cncc(-c2cc3c(-c4ccco4)n[nH]c3cn2)c1)Cc1ccccc1`, the IC50 in assay [1] amounted to 274 nM. This molecule also had an EC50 with MIA PaCa-2 of 1200 nM.

In the assay on MIA PaCa-2, `N[C@H](COc1cncc(-c2cc3cn[nH]c3cn2)c1)Cc1c[nH]c2ccccc12` registered an EC50 of 1160 nM.

Turning to `Cc1n[nH]c2cnc(-c3cncc(OC[C@@H](N)Cc4c[nH]c5ccccc45)c3)cc12`, the IC50 in assay [1] was 15 nM. Moreover, in the assay on MIA PaCa-2, the EC50 is 41 nM.

As to `C=Cc1n[nH]c2cnc(-c3cncc(OC[C@@H](N)Cc4ccccc4)c3)cc12`, in assay [1], the IC50 turned out to be 32 nM. Further, the half-maximal effective concentration (EC50) with MIA PaCa-2 came out at 660 nM.
